According to US9663764B2, “Generation of cardiomyocytes from human pluripotent stem cells” (Wisconsin Alumni Research Foundation, priority 2011, dated 2017):

Key:
[1] = tested on: 19-9-11 shcat-2 and scramble lines; assay: RT-PCR/qPCR gene expression in CH-treated 19-9-11 shcat-2 and scramble lines; format: cell-based, human
Protocol: RT-PCR and Quantitative RT-PCR: Total RNA was prepared with the RNeasy mini kit (QIAGEN) and treated with DNase (QIAGEN). 1 μg RNA was reverse transcribed into cDNA via Oligo (dT) with Superscript III Reverse Transcriptase (Invitrogen). Real-time quantitative PCR was done in triplicate with iQ SYBR Green SuperMix (Bio-Rad). RT-PCR was done with Gotaq Master Mix (Promega) and then subjected to 2% agarose gel electrophoresis. ACTB was used as an endogenous control. To test whether induction of cardiomyocyte differentiation by GSK3 inhibitors requires β-catenin, the inventors treated the shcat-2 and scramble 19-9-11 lines with CH in mTeSR1 medium. While the shcat-2 line maintained an undifferentiated morphology, the scramble line appeared to undergo differentiation (FIG. 2E), similar to non-transduced lines treated with CH (FIGS. 1B and 2B). Induction of differentiation following CH treatment in the scramble control was further indicated by diminished SOX2 and NANOG expression at day 4 (FIG. 3C). […] After 4 days of CH treatment in mTeSR1, the percentage of cells expressing Oct4 decreased to 61% in the scramble line, while 98% of the shcat-2 cells expressed Oct4 (FIG. 3D). […] To better understand early mesoderm induction via GSK3 inhibition, the inventors analyzed expression of the early mesoderm gene T in scramble and shcat-2 19-9-11 lines. As CH concentration increased, the ratio of T expression in scramble to the shcat-2 line increased (FIG. 3E). Less than 2% of shcat-2 cells expressed brachyury upon exposure to different concentrations of CH treatment for 4 days.

19-9-11 iPSCs = assay: Cardiac directed differentiation via small molecules on Matrigel, cTnT/MF20 flow cytometry; format: cell-based, human; settings: 12 μM CH treatment alone, after 15 days
Protocol: cardiac directed differentiation via small molecules: Cells were dissociated and plated as described in the Activin/BMP4 protocol. When hPS cells maintained on Matrigel® or Synthemax plates achieved confluence, cells were treated with CH in RPMI/B27-insulin for 24 hr (day 0 to day 1). The medium was changed to RPMI/B27-insulin, followed by 2 μg/ml dox treatment at different times between day 1 and day 5 for transgenic cell lines. For genetically unmodified lines, 5 μM IWP2 (Tocris) or IWP4 (Stemgent) was added at day 3 and removed during the day 5 medium change. Cells were maintained in the RPMI/B27 starting from day 7, with the medium changed every 3 days.
Flow Cytometry: Cells were dissociated into single cells and then fixed with 1% paraformaldehyde for 20 min at room temperature and stained with primary and secondary antibodies in PBS plus 0.1% Triton X-100 and 0.5% BSA. For the cell proliferation assay, a 17-hour pulse of BrdU was performed to identify dividing cardiomyocytes (Zhang et al., Circ. Res. 104, e30-41 (2009)). Data were collected on a FACSCaliber flow cytometer (Beckton Dickinson) and analyzed using FlowJo.
While shRNA inhibition of β-catenin provides specific and facile temporal regulation of canonical Wnt signaling, this method requires genetic modification of the hPS cell line which limits its potential clinical utility. The inventors next used the mechanistic insight these modified lines provided regarding the sufficiency of canonical Wnt signaling in cardiomyogenesis to develop a completely defined, growth factor free method of efficiently generating cardiomyocytes from unmodified hPS cell lines using small molecules. First, 19-9-11 iPSCs were maintained in mTeSR1 on Matrigel® for five days, and then the medium was switched to RPMI/B27-insulin containing 12 μM CH. IWP4 and IWP2, which prevent palmitylation of Wnt proteins by porcupine thereby blocking Wnt protein secretion and activity (Chen et al., Nat. Chem. Biol. 5:100-107 (2009)), were used to inhibit Wnt signaling. […] Similar to results obtained with the 19-9-11 ishcat-1 cell line, CH treatment of 19-9-11 cells alone only generated 16% cTNT+ or MF20+ cells after 15 days, while adding 5 μM IWP4 or IWP2 at day 3 increased this to 87% cTNT+ or MF20+ cells. […] In order to achieve fully defined culture conditions, Matrigel® was replaced with a defined peptide acrylate surface (Synthemax) during both hPS cell expansion and differentiation. […] Thus, optimization of canonical WNT signaling via stage-specific addition of small molecule agonists and antagonists produces high yields of functional cardiomyocytes in a completely defined, growth factor free culture system.

## Cc1c[nH]c(-c2cnc(NCCNc3ccc(C#N)cn3)nc2-c2ccc(Cl)cc2Cl)n1 [CH]
[1]; 12 μM CH for 4 days, scramble versus shcat-2
  expression of mesendoderm and early mesoderm genes MIXL1, GSC, T, WNT3A and MSX1: emerged in CH-treated scramble cells but not CH-treated shcat-2 cells
[1]; increasing CH concentration, 2 days, qPCR
  ratio of T expression in scramble to the shcat-2 line: increased
[1]; scramble control, CH treatment, day 4
  SOX2 and NANOG expression: diminished
[1]; shcat-2 cells treated with CH
  SOX2 and NANOG expression: No significant differences
19-9-11 iPSCs
  cTNT+ or MF20+ cells: 16%
